Data from PubChem BioAssay AID248 (DTP/NCI, 2004).
Where “and” joins values, the source holds several entries; their conditions need not be identical. Identical values can stand only once. Inconclusive results and toxic doses are left out. No stated cut-off is given here; in the data, active means T/C of 150% or more; inactive means T/C below 125%.

Tested on: L1210 leukemia ip in BDF1 mice, survival T/C
Test: NCI In Vivo Anticancer Drug Screen. Data for tumor model L1210 Leukemia (intraperitoneal) in B6D2F1 (BDF1) mice
Conditions: endpoint: mean survival time, higher = longer survival
Procedure, shortened: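 Mice bearing the transplanted tumor received compound or vehicle. Survival of the treated group was divided by that of the vehicle-treated control group to give the ratio.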

[1] = dose: 100.0 mg/kg/injection, schedule: Q04DX003 (ip), vehicle: saline
[2] = dose: 200.0 mg/kg/injection, schedule: Q04DX003 (ip), vehicle: saline
[3] = dose: 100.0 mg/kg/injection, schedule: Q01DX001 (ip), vehicle: saline with Tween-80
[4] = dose: 200.0 mg/kg/injection, schedule: Q01DX001 (ip), vehicle: saline with Tween-80
[5] = dose: 400.0 mg/kg/injection, schedule: Q01DX001 (ip), vehicle: saline with Tween-80
[6] = dose: 100.0 mg/kg/injection, schedule: Q01DX009 (ip), vehicle: acetone
[7] = dose: 50.0 mg/kg/injection, schedule: Q01DX009 (ip), vehicle: saline with Tween-80
[8] = dose: 100.0 mg/kg/injection, schedule: Q01DX009 (ip), vehicle: saline with Tween-80
[9] = dose: 100.0 mg/kg/injection, schedule: Q04DX003 (ip), vehicle: Klucel (hydroxypropylcellulose) (HPC)
[10] = dose: 200.0 mg/kg/injection, schedule: Q01DX009 (ip), vehicle: Klucel (hydroxypropylcellulose) (HPC)
[11] = dose: 200.0 mg/kg/injection, schedule: Q04DX003 (ip), vehicle: Klucel (hydroxypropylcellulose) (HPC)
[12] = dose: 400.0 mg/kg/injection, schedule: Q01DX009 (ip), vehicle: Klucel (hydroxypropylcellulose) (HPC)
[13] = dose: 400.0 mg/kg/injection, schedule: Q04DX003 (ip), vehicle: Klucel (hydroxypropylcellulose) (HPC)

Measured: T/C

NCC(O)C(F)(F)F (configuration not stated)
inactive: dose: 100.0 mg/kg/injection, schedule: Q01DX001 (ip), vehicle: carboxymethylcellulose (CMC) 109 % of control | dose: 200.0 mg/kg/injection, schedule: Q01DX001 (ip), vehicle: carboxymethylcellulose (CMC) 97 % of control | dose: 400.0 mg/kg/injection, schedule: Q01DX001 (ip), vehicle: carboxymethylcellulose (CMC) 118 % of control

O=c1cc(O)nc(C(F)(F)F)[nH]1
inactive: dose: 29.0 mg/kg/injection, schedule: Q01DX Z (ip), vehicle: methylcellulose (MC) 92 % of control | dose: 44.0 mg/kg/injection, schedule: Q01DX Z (ip), vehicle: methylcellulose (MC) 96 % of control | dose: 66.0 mg/kg/injection, schedule: Q01DX Z (ip), vehicle: methylcellulose (MC) 103 % of control | dose: 100.0 mg/kg/injection, schedule: Q01DX Z (ip), vehicle: methylcellulose (MC) 100 % of control

CN(C)C=NCCOCc1ccccc1
inactive: [1] 98 % of control | [2] 93 % of control

CCN(CC)c1ccc(N=Nc2ncn[nH]2)c(O)c1
inactive: [3] 100 % of control | [4] 98 % of control | [5] 88 % of control

O=NN(CCCl)C(=O)C1CCC(C(=O)N(CCCl)N=O)CC1 (configuration not stated)
inactive: dose: 0.25 mg/kg/injection, schedule: Q01DX001 (ip), vehicle: carboxymethylcellulose (CMC) 108 % of control | dose: 0.5 mg/kg/injection, schedule: Q01DX001 (ip), vehicle: carboxymethylcellulose (CMC) 117 % of control | dose: 10.0 mg/kg/injection, schedule: Q01DX001 (ip), vehicle: carboxymethylcellulose (CMC) 124 % of control | dose: 15.0 mg/kg/injection, schedule: Q01DX001 (ip), vehicle: carboxymethylcellulose (CMC) 123 % of control | dose: 30.0 mg/kg/injection, schedule: Q01DX001 (ip), vehicle: carboxymethylcellulose (CMC) 118 % of control | dose: 62.0 mg/kg/injection, schedule: Q01DX001 (ip), vehicle: carboxymethylcellulose (CMC) 87 % of control

COC(=O)/C=C(\C)Nc1ccc(NC(C)=O)cc1
inactive: dose: 25.0 mg/kg/injection, schedule: Q01DX009 (ip), vehicle: acetone 101 % of control | dose: 50.0 mg/kg/injection, schedule: Q01DX009 (ip), vehicle: acetone 101 % of control | [6] 94 % of control | dose: 100.0 mg/kg/injection, schedule: Q04DX003 (ip), vehicle: acetone 94 % of control | dose: 200.0 mg/kg/injection, schedule: Q04DX003 (ip), vehicle: acetone 96 % of control

O=C(NCCN1C(=O)C2C3CCC(O3)C2C1=O)Nc1ccc([N+](=O)[O-])cc1[N+](=O)[O-] (configuration not stated)
inactive: dose: 100.0 mg/kg/injection, schedule: Q04DX002 (ip), vehicle: Klucel (hydroxypropylcellulose) (HPC) 108 % of control | dose: 200.0 mg/kg/injection, schedule: Q04DX002 (ip), vehicle: Klucel (hydroxypropylcellulose) (HPC) 101 % of control | dose: 400.0 mg/kg/injection, schedule: Q04DX002 (ip), vehicle: Klucel (hydroxypropylcellulose) (HPC) 108 % of control

COC(=O)c1cc(=O)n(C)c2ccc(OC)cc12
inactive: [3] 101 % of control | [4] 103 % of control | [5] 109 % of control

COc1ccc2c(C)cc(C)nc2n1
inactive: dose: 75.0 mg/kg/injection, schedule: Q04DX002 (ip), vehicle: saline 104 % of control | dose: 150.0 mg/kg/injection, schedule: Q04DX002 (ip), vehicle: saline 112 % of control | dose: 300.0 mg/kg/injection, schedule: Q04DX002 (ip), vehicle: saline 108 % of control

c1ccc2c(CN3CCCCC3)c[nH]c2c1
inactive: [7] 108 % of control | [8] 88 % of control | dose: 100.0 mg/kg/injection, schedule: Q04DX003 (ip), vehicle: saline with Tween-80 93 % of control | dose: 200.0 mg/kg/injection, schedule: Q04DX003 (ip), vehicle: saline with Tween-80 88 % of control

CCOC(=O)C1(C(=O)OCC)CCC(OCC)N1C(=O)c1ccccc1[N+](=O)[O-] (configuration not stated)
inactive: dose: 25.0 mg/kg/injection, schedule: Q04DX003 (ip), vehicle: Klucel (hydroxypropylcellulose) (HPC) 94 % of control | dose: 50.0 mg/kg/injection, schedule: Q04DX003 (ip), vehicle: Klucel (hydroxypropylcellulose) (HPC) 99 % of control | [9] 89 % of control

Cc1cc(C)c(C)c(C(=O)O)c1C
inactive: dose: 100.0 mg/kg/injection, schedule: Q01DX001 (ip), vehicle: acetone 98 % of control | [6] 101 % of control | [1] 88 % of control | dose: 200.0 mg/kg/injection, schedule: Q01DX001 (ip), vehicle: acetone 89 % of control | dose: 200.0 mg/kg/injection, schedule: Q01DX009 (ip), vehicle: acetone 106 % of control | [2] 102 % of control | dose: 400.0 mg/kg/injection, schedule: Q01DX001 (ip), vehicle: acetone 94 % of control | dose: 400.0 mg/kg/injection, schedule: Q01DX009 (ip), vehicle: acetone 105 % of control | dose: 400.0 mg/kg/injection, schedule: Q04DX003 (ip), vehicle: saline 112 % of control

Cc1cccc2c(C)c3cccc[n+]3cc12
inactive: dose: 2.0 mg/kg/injection, schedule: Q01DX Z (ip), vehicle: carboxymethylcellulose (CMC) 113 % of control | dose: 4.0 mg/kg/injection, schedule: Q01DX Z (ip), vehicle: carboxymethylcellulose (CMC) 110 % of control | dose: 8.0 mg/kg/injection, schedule: Q01DX Z (ip), vehicle: carboxymethylcellulose (CMC) 113 % of control and 123 % of control | dose: 16.0 mg/kg/injection, schedule: Q01DX Z (ip), vehicle: carboxymethylcellulose (CMC) 115 % of control and 119 % of control

Cc1cc(=O)n(Cc2ccccc2)c(O)c1C
inactive: dose: 100.0 mg/kg/injection, schedule: Q01DX009 (ip), vehicle: Klucel (hydroxypropylcellulose) (HPC) 95 % of control | [9] 94 % of control | [10] 91 % of control | [11] 94 % of control | [12] 93 % of control | [13] 98 % of control

Cc1cnc2c(N)[nH]nc2n1
inactive: [9] 106 % of control | [10] 104 % of control | [11] 96 % of control | [12] 100 % of control | [13] 102 % of control

CCC(=O)Nc1ccc(OS(=O)(=O)N(C)C)cc1
inactive: [3] 100 % of control | [4] 95 % of control | [5] 100 % of control

Cl/C(=N\Nc1ccccc1)c1ccccc1
inactive: dose: 3.52 mg/kg/injection, schedule: Q01DX009 (ip), vehicle: saline sonified 100 % of control | dose: 5.28 mg/kg/injection, schedule: Q01DX009 (ip), vehicle: saline sonified 105 % of control | dose: 7.5 mg/kg/injection, schedule: Q01DX001 (ip), vehicle: Klucel (hydroxypropylcellulose) (HPC) 98 % of control | dose: 8.0 mg/kg/injection, schedule: Q01DX009 (ip), vehicle: saline sonified 100 % of control | dose: 12.0 mg/kg/injection, schedule: Q01DX009 (ip), vehicle: saline sonified 108 % of control | dose: 15.0 mg/kg/injection, schedule: Q01DX001 (ip), vehicle: Klucel (hydroxypropylcellulose) (HPC) 105 % of control | dose: 15.0 mg/kg/injection, schedule: Q01DX009 (ip), vehicle: saline sonified 111 % of control | dose: 30.0 mg/kg/injection, schedule: Q01DX001 (ip), vehicle: Klucel (hydroxypropylcellulose) (HPC) 105 % of control | dose: 30.0 mg/kg/injection, schedule: Q01DX009 (ip), vehicle: saline sonified 118 % of control

O=C(CCl)Nc1ccc(S(=O)(=O)c2ccc([N+](=O)[O-])cc2)cc1
inactive: dose: 30.0 mg/kg/injection, schedule: Q01DX001 (ip), vehicle: saline 94 % of control | dose: 75.0 mg/kg/injection, schedule: Q01DX009 (ip), vehicle: saline 95 % of control | dose: 75.0 mg/kg/injection, schedule: Q04DX003 (ip), vehicle: saline 92 % of control | dose: 100.0 mg/kg/injection, schedule: Q01DX001 (ip), vehicle: saline 91 % of control | dose: 150.0 mg/kg/injection, schedule: Q01DX009 (ip), vehicle: saline 96 % of control | dose: 150.0 mg/kg/injection, schedule: Q04DX003 (ip), vehicle: saline 91 % of control | dose: 300.0 mg/kg/injection, schedule: Q01DX001 (ip), vehicle: saline 94 % of control | dose: 300.0 mg/kg/injection, schedule: Q01DX009 (ip), vehicle: saline 101 % of control | dose: 300.0 mg/kg/injection, schedule: Q04DX003 (ip), vehicle: saline 94 % of control

CCOC(=O)c1c2c3c(c(Br)cc(C)c3[nH]c1=O)C(=O)c1ccccc1-2
inactive: [7] 97 % of control | [8] 101 % of control | dose: 200.0 mg/kg/injection, schedule: Q01DX009 (ip), vehicle: saline with Tween-80 101 % of control
